The text below walks through data of US5674911A, “Antiinfective polyoxypropylene/polyoxyethylene copolymers and methods of use” (Cytrx Corporation, priority 1995, dated 1997).

Usually EC50 stands for the concentration that produces a half-maximal response. A word on the inhibition: it is the change of the read-out against control, counted positive when it falls.

One series relates to HIV-1 (strain LAV-1). The series is described as follows: anti-HIV-1 assay in PBMC (reverse transcriptase activity). The format is cell-based. The conditions noted are these: Human immunodeficiency virus 1, PBMC, 144 h, read-out: Anti-HIV-1 in PBMC: EC50.
A short description of a further series: in vitro. The conditions noted are these: human, pha-stimulated pbmc.
Series [1] is described as follows: growth / cytotoxicity in Vero cells. The conditions noted are these: african green monkey, vero cells.
The next series deals with Vero cells. The series is described as follows: growth / cytotoxicity in Vero cells. To be noted: Chlorocebus sabaeus, Vero, 96 h, read-out: % Growth inhibition, Vero.
Series [2] concerns human peripheral blood mononuclear cells (PBMC). Nature of the series: growth / cytotoxicity in uninfected mitogen stimulated human PBMC. The conditions noted are these: 144 h, read-out: % Growth inhibition, PBMC.
The next series has as its system Mycobacterium avium. The series is described as follows: growth index of Mycobacterium avium in Bactec 7H12 Middlebrook broth (14C fatty acid). The conditions noted are these: 0.04 μg/ml (FIG. 35).

In the case of `Cc1cn([C@H]2C[C@H](N=[N+]=[N-])[C@@H](CO)O2)c(=O)[nH]c1=O` [AZT, azidothymidine], the concentration giving a half-maximal response (EC50) with HIV-1 (strain LAV-1) came out at 0.0056 µM. Besides, the CC50 at 144 h in “in vitro” was more than 100 µM. Besides, the CC50 at 96 h in series [1] was found to be 50.6 µM. Besides, in the series with Vero cells, the inhibition at 0.1 µM is -1.8%, the inhibition at 1 µM is 10.2%, the inhibition at 10 µM was determined as 20.7% and the inhibition at 50 µM stood at 47.4%. Also, the inhibition at 100 µM in the series on Vero cells worked out at 66.3%. In series [2], the inhibition at 0.1 µM was -8.9%, the inhibition at 1 µM was -2.2%, the inhibition at 10 µM is 5.5% and the inhibition at 50 µM was 16.8%. Further, the inhibition at 100 µM in series [2] was 28.4%.

Regarding `CO[C@H]1/C=C/O[C@@]2(C)Oc3c(C)c(O)c4c(O)c(c(/C=N/N5CCN(C)CC5)c(O)c4c3C2=O)NC(=O)/C(C)=C\C=C\[C@H](C)[C@H](O)[C@@H](C)[C@@H](O)[C@@H](C)[C@H](OC(C)=O)[C@@H]1C` [Rifampin, rifampin], the “inhibiting growth of M. avium” value in the series with Mycobacterium avium was “effective in inhibiting growth”.
